Drawing on patent EP4818193A1, “COMPOSITION AND METHOD FOR TREATING NEONATAL HYPOXIC-ISCHEMIC ENCEPHALOPATHY” (Suzhou Glenkol Pharma Technology Co., Ltd., priority 2023, dated 2025), this text covers LDH release levels and MTT formation levels for 1 substance.

Assay [1] has as its system cerebral cortical neural cells. Nature of the assay: Lactate dehydrogenase (LDH) cytotoxicity assay after oxygen-glucose deprivation. Type of assay: cell-based, neonatal rats. More on the design: dose or concentration left out as unconfirmed. The settings on record: added at initiation of oxygen-glucose deprivation; 24 hours after injury; compared to untreated oxygen-glucose deprivation group, p < 0.05.

In assay [2] the test system is cerebral cortical neural cells. As to the kind of experiment: MTT assay for cell viability after oxygen-glucose deprivation. The settings on record: added at initiation of oxygen-glucose deprivation; 24 hours after injury; compared to untreated oxygen-glucose deprivation group, p < 0.05. Type of assay: cell-based, neonatal rats. More on the design: dose or concentration left out as unconfirmed. For orientation: Tetrazolium dyes change colour on reduction, which living cells bring about.

Regarding Davunetide [NaP], the LDH release levels result in assay [1] is “significantly reduced”. Besides, in assay [2], the MTT formation levels entry is “significantly increased”.
